# Results as given in patent US20240166686A1, “THERAPEUTIC PEPTIDES” (Kyoto University, priority 2017, published 2024).
# Like-named read-outs stand apart in the source and are kept apart here.
# How the values were obtained:
# ddY mouse = assay: Elevated plus-maze (EPM) test; type: in vivo
# Method: The test was conducted 30 minutes after oral administration of a sample, and the evaluation was conducted based on the 5-minute test time. 23 to 27 g male ddY mice were used as animals to be studied. Cumulative time in open arms was recorded, and the percentage (%) of the time in open arms was used as an index for an anxiolytic-like effect.
# The anxiolytic-like effect of a peptide or peptide conjugate can be evaluated by an elevated plus-maze test which has been developed as an anxiety-related behavior evaluation method for screening for anti-anxiety agents and is widely used (FIG. 1). Specifically, a candidate substance is orally or intraperitoneally administered to each mouse. 30 minutes later, the mouse is placed in an elevated plus-maze. The strength of the anxiolytic-like effect can be evaluated by using the number of entries into open arms and change in residence time in the open arms as indexes.
# (§1) The elevated plus-maze consists of two open arms (25 cm×5 cm) and two closed arms (25 cm×5 cm×15 cm), and these arms are connected to a central platform elevated by 50 cm from the floor (see FIG. 1). In spite of such an elevated position, mice can walk safely in the closed arms because the closed arms are fenced. On the other hand, mice waking in the open arms feel anxious about falling from the elevated position because the open arms are open without being fenced. Therefore, a longer time when a mouse stays in the open arms means that mouse's feeling of anxiety is more alleviated, and serves as an index for an anxiolytic-like effect.
# (§2) As shown in the right diagram of FIG. 1, a sample was administered to each mouse (ddY mouse, male, 23 to 27 g) 30 minutes before the test. 30 minutes later, the mouse was placed on the central platform facing one of the open arms to start the test. Cumulative time in the open arms was recorded during the 5-minute test time. The percentage of the time in the open arms was calculated as an index for an anxiolytic-like effect.
# The data obtained by the test was indicated by the sum of a mean and a standard error of the mean (SEM). The data shown in FIGS. 1 to 9, 17, 18, 20, and 21 was analyzed by one-way or two-way ANOVA. Subsequently, study was conducted for multiple comparison by the Tukey Kramer method. P-value of <0.05 is denoted in the drawings as “*”; p-value of <0.01 is denoted in the drawings as “**”.
# ddY mice [1] = conditions: general statement on anti-depressant drugs; cited from earlier work
# [2] = stated in Non Patent Literature 1; cited from earlier work
# [3] = molecular target: T1, serotonin 5-HT1A receptor (Mus musculus, UniProt Q64264); assay: Elevated plus-maze test with 5-HT1A receptor antagonist WAY100135; type: in vivo; conditions: elevated plus-maze with or without WAY100135
# T1 construct: from tissue; host or cells: whole living animal (ddY mouse, male)
# T1 sequence (Q64264 1-421): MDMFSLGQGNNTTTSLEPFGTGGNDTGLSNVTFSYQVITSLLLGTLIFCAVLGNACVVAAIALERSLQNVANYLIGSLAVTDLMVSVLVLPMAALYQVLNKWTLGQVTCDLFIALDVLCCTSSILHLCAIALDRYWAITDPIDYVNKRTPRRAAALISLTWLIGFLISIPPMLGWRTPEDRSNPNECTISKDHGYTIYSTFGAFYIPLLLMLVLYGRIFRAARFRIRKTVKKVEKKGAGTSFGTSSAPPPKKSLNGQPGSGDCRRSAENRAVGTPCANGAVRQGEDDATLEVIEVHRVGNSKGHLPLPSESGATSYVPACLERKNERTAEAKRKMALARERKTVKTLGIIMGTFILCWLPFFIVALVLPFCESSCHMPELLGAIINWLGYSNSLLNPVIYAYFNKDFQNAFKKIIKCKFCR
# Excerpt: as §1, §2
# The peptide SYLPPLTT (SEQ ID NO: 1) or the peptide SYLPPLT (SEQ ID NO: 4) (dose: 1.0 mg/kg) was used in combination with a serotonin 5-HT1A receptor antagonist WAY100135 (dose: 10 mg/kg) and orally administered (p.o.) to each mouse, which was then used in the elevated plus-maze test (n=4 to 6).
# The peptide YHIEPV (SEQ ID NO:2) was orally administered as a sample to mice 30 minutes before an elevated plus-maze test, with or without WAY100135, an antagonist selective for 5-HT1A receptor (n=13-15). WAY100135 was administered 50 minutes before the elevated plus-maze test. Separately, the peptide YHIEPV (SEQ ID NO:2) was orally administered as a sample to mice 30 minutes before an elevated plus-maze test, with or without naltrindole, an […] receptor antagonist, which was administered 50 minutes before the elevated plus-maze test (n=11-15).
# ddY mice [4] = assay: Tail suspension test; type: in vivo, mouse; conditions: 30 min before 6-min suspension
# Method: Antidepressant-like effect can be evaluated by a tail suspension test. The tail suspension test is an experimental method used to screen potential antidepressant drugs (Can et al., 2012, J Vis Exp., 59:e3769). The amount of time that a mouse is immobile (i.e. is not displaying escape behavior) during the six minutes is measured to provide an immobility time. […] Therefore, if a reduction of immobility time is observed when testing a test substance, it can be concluded that the test substance has anti-depressant properties. Immobility is considered a despair state, and, therefore, a reduction of immobility time also indicates an increase in motivation (i.e., that the test substance has motivation-increasing properties).
# The peptide SYLPPLT (SEQ ID NO: 4) was administered orally to mice (ddY mice, males, 24˜30 g) at 0.03 mg/kg, 0.1 mg/kg or 0.3 mg/kg and 30 minutes later the mice were suspended by their tails for six minutes.(n=11 to 14)
# δ opioid receptor = molecular target: T2, δ opioid receptor (Mus musculus, UniProt P32300); assay: Elevated plus-maze test with opioid receptor antagonist naltrindole; type: in vivo; conditions: elevated plus-maze with or without naltrindole given 50 min before test; peptide oral 30 min before
# T2 construct: orally administered as a sample to mice 30 minutes before an elevated plus-maze test, with or without naltrindole; from tissue; host or cells: whole living animal (ddY mouse, male)
# T2 sequence (P32300 whole entry): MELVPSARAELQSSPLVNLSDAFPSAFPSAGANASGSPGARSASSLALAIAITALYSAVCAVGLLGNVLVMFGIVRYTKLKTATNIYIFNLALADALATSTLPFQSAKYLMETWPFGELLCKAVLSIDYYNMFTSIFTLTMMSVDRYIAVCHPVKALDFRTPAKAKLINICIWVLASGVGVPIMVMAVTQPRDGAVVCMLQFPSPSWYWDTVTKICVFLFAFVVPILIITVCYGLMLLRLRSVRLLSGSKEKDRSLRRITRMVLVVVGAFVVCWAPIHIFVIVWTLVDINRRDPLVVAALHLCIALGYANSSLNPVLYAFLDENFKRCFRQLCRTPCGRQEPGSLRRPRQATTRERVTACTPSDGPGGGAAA
# Excerpt: as §1, §2
# The peptide YHIEPV (SEQ ID NO:2) was orally administered as a sample to mice 30 minutes before an elevated plus-maze test, with or without WAY100135, an antagonist selective for 5-HT1A receptor (n=13-15). WAY100135 was administered 50 minutes before the elevated plus-maze test. […]
# [5] = Example 16, oral, SYLPPLTT 0.3, 1, SYLPPLT 0.1, 0.3, 1, YHIEPV 1, 3, 10, diazepam 1, 3, 10 mg/kg, result not split by dose
# [6] = oral 0.1 mg/kg, 30 min before 5-min test, vs vehicle saline
# [7] = oral 0.3 mg/kg, 30 min before 5-min test, vs vehicle saline
# [8] = oral 1 mg/kg, 30 min before 5-min test, vs vehicle saline
# [9] = oral 10 mg/kg, 30 min before 5-min test, vs vehicle saline
compound,measurement,setting,value
"CN1C(=O)CN=C(c2ccccc2)c2cc(Cl)ccc21 [diazepam, Diazepam, reference compound]",ratio of an open arm residence time,ddY mouse; [5],increase observed
CN(C)CCCN1c2ccccc2CCc2ccccc21 [imipramine],immobility time,ddY mice [1],reduces immobility time
FLLVK,ratio of an open arm residence time,ddY mouse; [6],increased
LLVK,ratio of an open arm residence time,ddY mouse; [6],increased
LVK,ratio of an open arm residence time,ddY mouse; [6],increased
NYLLVKG,ratio of an open arm residence time,ddY mouse; [6],increased
Rubiscolin-6,anxiolytic effect,[2],has an anxiolytic effect
SYLPPL,ratio of an open arm residence time,ddY mouse; [7],increased
same,ratio of an open arm residence time,ddY mouse; [8],increased
same,ratio of an open arm residence time,ddY mouse; [9],increased
SYLPPLT,ratio of an open arm residence time,ddY mouse; [5],increased
same,ratio of an open arm residence time,ddY mouse; [6],increased
same,ratio of an open arm residence time,ddY mouse; [7],increased
same,ratio of an open arm residence time,ddY mouse; [8],statistically significant
same,anxiolytic-like effect mediated by serotonin 5-HT1A receptor,[3],mediated by activation of serotonin 5-HT1A receptor
same,immobility time,ddY mice [4]; oral 0.03 mg/kg,decrease
same,immobility time,ddY mice [4]; oral 0.1 mg/kg,decrease
same,immobility time,ddY mice [4]; oral 0.3 mg/kg,decrease
SYLPPLTT,ratio of an open arm residence time,ddY mouse; [5],increased
same,ratio of an open arm residence time,ddY mouse; [7],increased
same,ratio of an open arm residence time,ddY mouse; [8],statistically significant
same,anxiolytic-like effect mediated by serotonin 5-HT1A receptor,[3],mediated by activation of serotonin 5-HT1A receptor
WLLVK,ratio of an open arm residence time,ddY mouse; [6],increased
YHIEPV,ratio of an open arm residence time,ddY mouse; [5],increased
same,ratio of an open arm residence time,ddY mouse; [8],increased
same,ratio of an open arm residence time,"ddY mouse; oral 3 mg/kg, 30 min before 5-min test, vs vehicle saline",statistically significant
same,ratio of an open arm residence time,ddY mouse; [9],statistically significant
same,anxiolytic-like effect mediated by serotonin 5-HT1A receptor,[3],not mediated by activation of serotonin 5-HTopio1A receptor
same,anxiolytic-like effect mediated by opioid receptor,δ opioid receptor,mediated by activation 8-opioid receptor
YLL (NYLLVKG),ratio of an open arm residence time,ddY mouse; [6],increased
YLLAVK,ratio of an open arm residence time,ddY mouse; [5],increased
same,ratio of an open arm residence time,ddY mouse; [6],increased
YLLNNK,ratio of an open arm residence time,ddY mouse; [6],increased
YLLV,ratio of an open arm residence time,ddY mouse; [6],increased
YLLVK,ratio of an open arm residence time,"ddY mouse; oral 0.03 mg/kg, 30 min before 5-min test, vs vehicle saline",significantly increased
same,ratio of an open arm residence time,"ddY mouse; oral 0.1 mg/kg, 30 min before 5-min test, vs vehicle saline, 0.1 mg/kg",significantly increased
YLLVR,ratio of an open arm residence time,ddY mouse; [6],increased
YLVK,ratio of an open arm residence time,ddY mouse; [6],increased
